Where two headings read alike, the source gives them in different places.
How the values were obtained:
MLL-AF9 cells = experiment: MLL-AF9 leukemia cell growth inhibition, dose-response viability assay (CellTiterGlo); format: cell-based, murine; details: read-out: MLL-AF9 EC50
Outline: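 Murine MLL-AF9 leukemia cells (female, MSCV MLL-AF9 IRES Puro transduced) were treated with serial compound dilutions from 10 μM to 0.5 nM in duplicates or quadruplicates. Viability read by CellTiterGlo dose-response.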

OCI-AML3 cells = experiment: OCI-AML3 cell growth inhibition, dose-response viability assay (CellTiterGlo); format: cell-based; details: read-out: AML-3 EC50
Outline: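 OCI-AML3 cells seeded, then exposed to compound in serial dilutions from 10 μM to 0.5 nM, in duplicate or quadruplicate. Viability read by CellTiter-Glo.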

Row | SMILES | EC50 (MLL-AF9 cells; Mus musculus, MLL-AF9, 120 h) | EC50 (OCI-AML3 cells; Homo sapiens, OCI-AML-3, 144 h) | EC50 (MLL-AF9 cells; MLL-AF9 cells, 5 days of culture, CellTiterGlo) | EC50 (OCI-AML3 cells; OCI-AML3 cells, 6 days of culture, CellTiterGlo)
1 | Fc1ccc2cc(-c3nc(COc4ccc(CCCCn5ccnn5)cc4)co3)oc2c1 [Compound 142, 4-((4-(4-(1H-1,2,3-triazol-1-yl)butyl)phenoxy)methyl)-2-(6-fluorobenzofuran-2-yl)oxazole] | 100 to 500 nM | 500 to 1000 nM |  | 
2 | CCOC(=O)c1cn(CCCCc2ccc(OCc3coc(/C=C/c4ccc(C(F)(F)F)cc4)n3)cc2)nn1 [Compound 114, ethyl (E)-1-(4-(4-((2-(4-(trifluoromethyl)styryl)oxazol-4-yl)methoxy)phenyl)butyl)-1H-1,2,3-triazole-4-carboxylate] | 1000 to 10000 nM | 1000 to 10000 nM |  | 
3 | Fc1cc(C(F)(F)F)ccc1/C=C/c1nc(COc2ccc(SCCn3ccnn3)cc2)co1 [Compound 147, (E)-4-((4-((2-(1H-1,2,3-triazol-1-yl)ethyl)thio)phenoxy)methyl)-2-(2-fluoro-4-(trifluoromethyl)styryl)oxazole] | < 50 nM | < 50 nM |  | 
4 | FC(F)(F)c1cccc(/C=C/c2nc(COc3ccc(CCCCn4ccnn4)cc3)co2)c1 [Compound 49, (E)-4-((4-(4-(1H-1,2,3-triazol-1-yl)butyl)phenoxy)methyl)-2-(3-(trifluoromethyl)styryl)oxazole] | 1000 to 10000 nM | 1000 to 10000 nM |  | 
5 | N#Cc1ccc(/C=C/c2nc(COc3ccc(SCCCn4ccnn4)cc3)co2)c(F)c1 [Compound 141, (E)-4-(2-(4-((4-((3-(1H-1,2,3-triazol-1-yl)propyl)thio)phenoxy)methyl)oxazol-2-yl)vinyl)-3-fluorobenzonitrile] | 50 to 100 nM | < 50 nM |  | 
6 | O=C(CCCn1ccnn1)c1ccc(OCc2coc(/C=C/c3ccc([N+](=O)[O-])cc3F)n2)cc1 [Compound 24, (E)-1-(4-((2-(2-fluoro-4-nitrostyryl)oxazol-4-yl)methoxy)phenyl)-4-(1H-1,2,3-triazol-1-yl)butan-1-one] | 500 to 1000 nM | 1000 to 10000 nM |  | 
7 | O=[N+]([O-])c1ccc(/C=C/c2nc(COc3ccc(CCCCc4cccnc4)cc3)co2)c(F)c1 [Compound 103, (E)-2-(2-fluoro-4-nitrostyryl)-4-((4-(4-(pyridin-3-yl)butyl)phenoxy)methyl)oxazole] | 100 to 500 nM | 100 to 500 nM |  | 
8 | Fc1cc(OC(F)(F)F)ccc1/C=C/c1nc(COc2ccc(CCCCn3ccnn3)cc2)co1 [Compound 124, (E)-4-((4-(4-(1H-1,2,3-triazol-1-yl)butyl)phenoxy)methyl)-2-(2-fluoro-4-(trifluoromethoxy)styryl)oxazole] | 50 to 100 nM | < 50 nM |  | 
9 | COCCNC(=O)OCCc1cn(CCCCc2ccc(OCc3coc(/C=C/c4ccc(C(F)(F)F)cc4)n3)cc2)nn1 [Compound 69, (E)-2-(1-(4-(4-((2-(4-(trifluoromethyl)styryl)oxazol-4-yl)methoxy)phenyl)butyl)-1H-1,2,3-triazol-4-yl)ethyl (2-methoxyethyl)carbamate] | 100 to 500 nM | 500 to 1000 nM |  | 
10 | Fc1cc(Br)ccc1/C=C/c1nc(COc2ccc(CCCCn3ccnn3)cc2)co1 [Compound 3A, (E)-((4-(4-(1H-1,2,3-triazol-1-yl)butyl)phenoxy)methyl)-2-(4-bromo-2-fluorostyryl)oxazole] |  |  | < 50 nM | < 50 nM
11 | NCCc1cn(CCCCc2ccc(OCc3coc(/C=C/c4ccc(C(F)(F)F)cc4)n3)cc2)nn1 [Compound 13, (E)-2-(1-(4-(4-((2-(4-(trifluoromethyl)styryl)oxazol-4-yl)methoxy)phenyl)butyl)-1H-1,2,3-triazol-4-yl)ethanamine] | 1000 to 10000 nM | 1000 to 10000 nM |  | 
12 | C/C(=C\c1nc(COc2ccc(CCCCn3ccnn3)cc2)co1)c1ccc(C(F)(F)F)cc1 [Compound 74, (E)-4-((4-(4-(1H-1,2,3-triazol-1-yl)butyl)phenoxy)methyl)-2-(2-(4-(trifluoromethyl)phenyl)prop-1-en-1-yl)oxazole] | 100 to 500 nM | 1000 to 10000 nM |  | 
13 | Fc1cc(C(F)(F)F)ccc1/C=C/c1nc(CSc2ccc(CCCn3ccnn3)cc2)co1 [Compound 132, (E)-4-(((4-(3-(1H-1,2,3-triazol-1-yl)propyl)phenyl)thio)methyl)-2-(2-fluoro-4-(trifluoromethyl)styryl)oxazole] | 500 to 1000 nM | 1000 to 10000 nM |  | 
14 | O=C(CCCn1ccnn1)c1ccc(OCc2coc(/C=C/c3ccc(C(F)(F)F)cc3F)n2)cc1 [Compound 22, (E)-1-(4-((2-(2-fluoro-4-(trifluoromethyl)styryl)oxazol-4-yl)methoxy)phenyl)-4-(1H-1,2,3-triazol-1-yl)butan-1-one] | 100 to 500 nM | 500 to 1000 nM |  | 
15 | CN(C)C(=O)OCCc1cn(CCCCc2ccc(OCc3coc(/C=C/c4ccc(C(F)(F)F)cc4)n3)cc2)nn1 [Compound 68, (E)-2-(1-(4-(4-((2-(4-(trifluoromethyl)styryl)oxazol-4-yl)methoxy)phenyl)butyl)-1H-1,2,3-triazol-4-yl)ethyl dimethylcarbamate] | 100 to 500 nM | 500 to 1000 nM |  | 
16 | CN(C)C(=O)OCCC(=O)NCCCCc1ccc(OCc2coc(/C=C/c3ccc(C(F)(F)F)cc3)n2)cc1 [Compound 87, (E)-3-oxo-3-((4-(4-((2-(4-(trifluoromethyl)styryl)oxazol-4-yl)methoxy)phenyl)butyl)amino)propyl dimethylcarbamate] | 100 to 500 nM | 500 to 1000 nM |  | 

Row | SMILES | EC50 (MLL-AF9 cells; Mus musculus, MLL-AF9, 120 h) | EC50 (OCI-AML3 cells; Homo sapiens, OCI-AML-3, 144 h) | EC50 (MLL-AF9 cells; MLL-AF9 cells, 5 days of culture, CellTiterGlo) | EC50 (OCI-AML3 cells; OCI-AML3 cells, 6 days of culture, CellTiterGlo)
17 | OC1(c2cn(CCCCc3ccc(OCc4coc(/C=C/c5ccc(C(F)(F)F)cc5)n4)cc3)nn2)CCCC1 [Compound 8, (E)-1-(1-(4-(4-((2-(4-(trifluoromethyl)styryl)oxazol-4-yl)methoxy)phenyl)butyl)-1H-1,2,3-triazol-4-yl)cyclopentanol] | 100 to 500 nM | 500 to 1000 nM |  | 
18 | Fc1cc(F)c2cc(-c3nc(COc4ccc(SCCCn5ccnn5)cc4)co3)[nH]c2c1 [Compound 144, 4-((4-((3-(1H-1,2,3-triazol-1-yl)propyl)thio)phenoxy)methyl)-2-(4,6-difluoro-1H-indol-2-yl)oxazole] | < 50 nM | < 50 nM |  | 
19 | Fc1cccc(F)c1/C=C/c1nc(COc2ccc(CCCCn3ccnn3)cc2)co1 [Compound 46, (E)-4-((4-(4-(1H-1,2,3-triazol-1-yl)butyl)phenoxy)methyl)-2-(2,6-difluorostyryl)oxazole] | 1000 to 10000 nM | 500 to 1000 nM |  | 
20 | COc1ccc(/C=C/c2nc(COc3ccc(CCCCn4ccnn4)cc3)co2)cc1 [Compound 32, (E)-4-((4-(4-(1H-1,2,3-triazol-1-yl)butyl)phenoxy)methyl)-2-(4-methoxystyryl)oxazole] | 100 to 500 nM | 100 to 500 nM |  | 
21 | O=C(Nc1ccc(C(F)(F)F)cc1[N+](=O)[O-])c1coc(COc2ccc(CCCCn3ccnn3)cc2)n1 [Compound 78, 2-((4-(4-(1H-1,2,3-triazol-1-yl)butyl)phenoxy)methyl)-N-(2-nitro-4-(trifluoromethyl)phenyl)oxazole-4-carboxamide] | > 10000 nM | 1000 to 10000 nM |  | 
22 | OCCc1cn(CCCCc2ccc(OCc3coc(/C=C/c4ccc(C(F)(F)F)cc4)n3)cc2)nn1 [Compound 4, (E)-2-(1-(4-(4-((2-(4-Trifluoromethyl)styryl)oxazol-4-yl)methoxy)phenyl)butyl-1H-1,2,3-triazol-4-yl)ethanol] | 500 to 1000 nM | 1000 to 10000 nM |  | 
23 | Fc1cc(C(F)(F)F)ccc1/C=C/c1nc(COc2ccc(CCCCn3ncnn3)cc2)co1 [Compound 110, (E)-4-((4-(4-(2H-tetrazol-2-yl)butyl)phenoxy)methyl)-2-(2-fluoro-4-(trifluoromethyl)styryl)oxazole] | 1000 to 10000 nM | 1000 to 10000 nM |  | 
24 | O=C(OCCCCc1ccc(OCc2coc(/C=C/c3ccc(C(F)(F)F)cc3)n2)cc1)N1CCOCC1 [Compound 35, (E)-4-(4-((2-(4-(trifluoromethyl)styryl)oxazol-4-yl)methoxy)phenyl)butyl morpholine-4-carboxylate] | 500 to 1000 nM | 1000 to 10000 nM |  | 
25 | Cc1oc(/C=C/c2ccc(C(F)(F)F)cc2F)nc1COc1ccc(CCCCn2ccnn2)cc1 [Compound 145, (E)-4-((4-(4-(1H-1,2,3-triazol-1-yl)butyl)phenoxy)methyl)-2-(2-fluoro-4-(trifluoromethyl)styryl)-5-methyloxazole] | 100 to 500 nM | 500 to 1000 nM |  | 
26 | CCN(CC)C(=O)OCCCCc1ccc(OCc2coc(/C=C/c3ccc(C(F)(F)F)cc3)n2)cc1 [Compound 34, (E)-4-(4-((2-(4-(trifluoromethyl)styryl)oxazol-4-yl)methoxy)phenyl)butyl diethylcarbamate] | 1000 to 10000 nM | 1000 to 10000 nM |  | 
27 | OCc1ccc(/C=C/c2nc(COc3ccc(CCCCn4ccnn4)cc3)co2)cc1 [Compound 60, (E)-(4-(2-(4-((4-(4-(1H-1,2,3-triazol-1-yl)butyl)phenoxy)methyl)oxazol-2-yl)vinyl)phenyl)methanol] | 1000 to 10000 nM | 1000 to 10000 nM |  | 
28 | Fc1cc(Cl)ccc1/C=C/c1nc(COc2ccc(CCCCn3ccnn3)cc2)co1 [Compound 116, (E)-4-((4-(4-(1H-1,2,3-triazol-1-yl)butyl)phenoxy)methyl)-2-(4-chloro-2-fluorostyryl)oxazole] | 50 to 100 nM | 50 to 100 nM |  | 
29 | Clc1ccc(/C=C/c2nc(COc3ccc(CCCCn4ccnn4)cc3)co2)cc1 [Compound 38, (E)-4-((4-(4-(1H-1,2,3-triazol-1-yl)butyl)phenoxy)methyl)-2-(4-chlorostyryl)oxazole] | 100 to 500 nM | 50 to 100 nM |  | 
30 | CS(=O)(=O)NCCc1nccn1CCCCc1ccc(OCc2coc(/C=C/c3ccc(C(F)(F)F)cc3)n2)cc1 [Compound 54, (E)-N-(2-(1-(4-(4-((2-(4-(trifluoromethyl)styryl)oxazol-4-yl)methoxy)phenyl)butyl)-1H-imidazol-2-yl)ethyl)methanesulfonamide] | 100 to 500 nM | 100 to 500 nM |  | 
31 | FC(F)(F)c1ccc(-c2ccc(COc3ccc(CCCCn4ccnn4)cc3)cn2)cc1 [Compound 75] | 1000 to 10000 nM | 1000 to 10000 nM |  | 
